Where “and” joins values, the source holds several entries; their conditions need not be identical. Equal values may be shown once.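 These data come from cells grown in 96-well plates and exposed to compound for 48 hours at five concentrations. The concentration for 50% growth inhibition is given as GI50. TGI marks complete inhibition of growth.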
Columns and labels:
Assay in all cases: inhibition of tumour cell growth, NCI panel, 48 h
NCI-H460 lung = system: NCI-H460 lung
A498 renal = system: A498 renal
CAKI-1 renal = system: CAKI-1 renal
RPMI-8226 leukemia = system: RPMI-8226 leukemia
NCI-H226 lung = system: NCI-H226 lung
SF-268 CNS = system: SF-268 CNS
LOX IMVI melanoma = system: LOX IMVI melanoma
SF-539 CNS = system: SF-539 CNS
COLO 205 colon = system: COLO 205 colon
OVCAR-4 ovarian = system: OVCAR-4 ovarian

Row | SMILES | GI50 (NCI-H460 lung) [nM] | TGI (NCI-H460 lung) | GI50 (A498 renal) [µM] | TGI (A498 renal) | GI50 (CAKI-1 renal) [µM] | TGI (CAKI-1 renal) | GI50 (RPMI-8226 leukemia) [nM] | TGI (RPMI-8226 leukemia) | GI50 (NCI-H226 lung) [µM] | TGI (NCI-H226 lung) | GI50 (SF-268 CNS) [nM] | TGI (SF-268 CNS) | GI50 (LOX IMVI melanoma) [µM] | TGI (LOX IMVI melanoma) | GI50 (SF-539 CNS) [nM] | TGI (SF-539 CNS) | GI50 (COLO 205 colon) [nM] | TGI (COLO 205 colon) | GI50 (OVCAR-4 ovarian) [µM] | TGI (OVCAR-4 ovarian)
1 | [N-]=[N+]=NCCCn1c2c(c3ccc([N+](=O)[O-])cc3c1=O)C(=O)c1cc(I)ccc1-2 | 449 | 11.6 µM | 6.52 | 28.5 µM | 9.38 | > 100 µM | 2170 | 59.6 µM | 14.3 | > 100 µM | 2580 | > 100 µM | 3.75 | 33 µM | 2230 | 8.51 µM | 40400 | > 100 µM | 60 | > 100 µM
2 | CC(=O)OC1CC2C(C)(C)CCC[C@]2(C)C2=C1C(O)=C(C(C)C)C(=O)C2=O (stereo partly drawn) | 354 | 1.69 µM | 0.402 | 1.79 µM | 0.567 | 2.9 µM | 466 | 4.08 µM | 0.589 | 2.12 µM | 902 | 10.1 µM | 1.15 | 2.95 µM | 723 | 3.83 µM | 1470 | 3.33 µM | 0.8 | 7.07 µM
3 | CN1C(c2ccccc2)CC(C)(O)CC1c1ccccc1 (stereo not drawn) |  | > 100 µM |  | > 100 µM |  | > 100 µM |  | > 100 µM |  | > 100 µM |  | > 100 µM |  | > 100 µM |  | > 100 µM |  | > 100 µM |  | > 100 µM
4 | COc1ccc(C2CC(c3ccccc3)=NN2C(=O)c2cc(OC)c(OC)c(OC)c2)cc1O (stereo not drawn) | 354 | 12.6 µM | 0.618 | 19.4 µM | 0.925 | > 100 µM | 259 | 5.47 µM | 1.29 | 21.3 µM | 902 | > 39.8 µM | 0.611 | 15.6 µM | 288 | 1.31 µM | 2960 | 10.4 µM | 0.596 | > 100 µM
5 | Cc1ccccc1C=NC12CC3CC(CC(C3)C1)C2 |  | > 100 µM |  | > 100 µM |  | > 100 µM |  | > 100 µM |  | > 100 µM |  | > 100 µM |  | > 100 µM |  | > 100 µM |  | > 100 µM |  | > 100 µM
6 | CCC1=C[C@@H]2CN(C1)Cc1c([nH]c3ccccc13)[C@@](C(=O)OC)(c1cc3c(cc1OC)N(C)[C@H]1[C@@](O)(C(=O)OC)[C@H](OC(C)=O)[C@]4(CC)C=CCN5CC[C@]31[C@@H]54)C2 | < 10 | 0.444 µM | < 0.01 | 0.141 µM |  | 2.52 µM | < 10 |  | < 0.0302 | 36.5 µM | < 10 | 14.2 µM | < 0.01 | 15.5 µM | < 10 | 0.0441 µM | < 10 | 0.0775 µM | < 0.01 | 21 µM
7 | CC[O-].CC[O-].COc1ccc(C(=O)[CH-]C(C)=O)cc1OC.COc1ccc(C(=O)[CH-]C(C)=O)cc1OC.[Ti+4] | 55800 | > 100 µM | 29.6 | 75.2 µM | 33 | 96.1 µM | 44600 | > 100 µM | > 100 | > 100 µM | > 100000 | > 100 µM | 80.3 | > 100 µM | 38900 | > 100 µM | > 100000 | > 100 µM | > 100 | > 100 µM
8 | CCc1cccc(C)c1N1C(=O)C(=O)C(c2nc3ccccc3o2)/C(=N/NC(=S)NN)C1=O (stereo not drawn) |  | > 100 µM |  | > 100 µM |  | > 100 µM |  | > 100 µM |  | > 100 µM |  | > 100 µM |  | > 100 µM |  | > 100 µM |  | > 100 µM |  | > 100 µM
9 | C=C1C[C@@H](O)[C@@H](Br)C(C)(C)[C@]12CCC(C)(Br)C(Cl)C2 (stereo partly drawn) | 18000 | > 50 µM and 32.4 µM | 18 | > 50 µM and 31.9 µM | 18.3 | > 50 µM and 37.2 µM | 12600 | 50 µM and 33.3 µM | 15.6 | 50 µM and 29.9 µM | 19100 | > 50 µM and 35.8 µM | 18.1 | > 50 µM and 35 µM | 16900 | > 50 µM and 31.2 µM | 627 | 1.71 µM and 2.09 µM | 15.7 | > 50 µM and 32.9 µM
10 | CON=C1C[C@]2(C[C@@H]3C[C@@H](C/C=C(\C)C[C@@H](C)/C=C/C=C4\CO[C@@H]5[C@H](O)C(C)=C[C@@H](C(=O)O3)[C@]45O)O2)O[C@H](/C(C)=C/C(C)C)[C@H]1C | 13100 | 30.3 µM | 10.5 | 22.9 µM | 7.52 | 21.6 µM | 4230 | 53.6 µM | 16 | 29.8 µM | 13000 | 27.5 µM | 13.3 | 26.5 µM | 20400 | 36.9 µM | 13700 | 28.5 µM | 16 | 29.7 µM

From PubChem BioAssay (NCI)
